Data published in paper PMC4515243, “Phase 1 pharmacokinetic study of the oral pan-AKT inhibitor MK-2206 in Japanese patients with advanced solid tumors” (Cancer Chemotherapy and Pharmacology, 2015).
pIC50: −log10 of the molar value.

Experiments:
advanced solid tumors = experiment: tumor response according to RECIST version 1.0 in Japanese patients; type: in vivo, human
Protocol: The anti-tumor activity was evaluated at baseline and every 6 weeks according to the Response Evaluation Criteria In Solid Tumors (RECIST), version 1.0.

AKT1 = tested on: AKT1; parameters: method as in ref 3 = [3]; 3. Yan L (2009) MK-2206: a potent oral allosteric AKT inhibitor [abstract #DDT01-1]. In: Proceedings of the 100th annual meeting of the American association for cancer research, Denver, CO, 18–22 Apr; conditions: purified recombinant AKT1, in vitro; cited from earlier work
AKT1 kinase activity = target: AKT1 kinase activity; parameters: method as in ref 4 = [4]; 4. Lu W, Defeo-Jones D, Davis L et al (2009) In vitro and in vivo antitumor activities of MK-2206, a new allosteric Akt inhibitor [abstract #3714]. In: Proceedings of the 100th annual meeting of the A; conditions: several cancer cell lines; cited from earlier work
AKT2 = tested on: AKT2; parameters: method as in ref 4 = [4]; 4. Lu W, Defeo-Jones D, Davis L et al (2009) In vitro and in vivo antitumor activities of MK-2206, a new allosteric Akt inhibitor [abstract #3714]. In: Proceedings of the 100th annual meeting of the A; conditions: several cancer cell lines; cited from earlier work
AKT3 = tested on: AKT3; parameters: method as in ref 4 = [4]; 4. Lu W, Defeo-Jones D, Davis L et al (2009) In vitro and in vivo antitumor activities of MK-2206, a new allosteric Akt inhibitor [abstract #3714]. In: Proceedings of the 100th annual meeting of the A; conditions: several cancer cell lines; cited from earlier work
[1] = tested on: in vivo preclinical models; parameters: method as in PMID 20571069; conditions: single agent; cited from earlier work
AKT pathway = tested on: AKT pathway; parameters: method as in PMID 25239610; conditions: continuous QOD and intermittent QW dosing, serially obtained tumor and platelet-rich plasma; cited from earlier work

NC1(c2ccc(-c3nc4ccn5c(=O)[nH]nc5c4cc3-c3ccccc3)cc2)CCC1 [MK-2206]
tumor responses (RECIST 1.0) (advanced solid tumors; 24 patients evaluated): no tumor responses
patients with SD lasting longer than 4 months (advanced solid tumors; all cohorts): 6 of the 24
patients with SD lasting longer than 4 months, percent (advanced solid tumors; all cohorts): 25%
patients with SD for 6 months or longer (advanced solid tumors; one mediastinal tumor, one esophageal cancer): two patients
patients with stable disease (SD) for 4 months or longer (advanced solid tumors; two cervical cancer, one leiomyosarcoma, one breast cancer): Four patients
pIC50 (AKT1 kinase activity): ~7.70
potency on AKT2 activity relative to AKT1 (AKT2): two to sixfold less potently
potency on AKT3 activity relative to AKT1 (AKT3): two to sixfold less potently
anti-tumor activity [1]: showed anti-tumor activity
AKT pathway blockade (AKT pathway): Significant AKT pathway blockade
